Experimental data as given in patent publication US6544990B2, “Substituted quinolinecarboxamides as antiviral agents” (Pharmacia & Upjohn Company, priority 2001, dated 2003).

Assays:
HCMV polymerase = molecular target: T1, HCMV polymerase (Human cytomegalovirus, UniProt P08546); assay: HCMV polymerase scintillation proximity assay (SPA); type: biochemical; settings: CMV polymerase
T1 construct: made in house; host or cells: recombinant baculovirus-infected SF-9 cells
Experimental: The HCMV polymerase assay is performed using a scintillation proximity assay (SPA) as described in several references, such as N. D. Cook, et al., Pharmaceutical Manufacturing International, pages 49-53 (1992); K. Takeuchi, Laboratory Practice, September issue (1992); U.S. Pat. No. 4,568,649 (1986); which are incorporated by reference herein. Reactions are performed in 96-well plates. The assay is conducted in 100 μl volume with 5.4 mM HEPES (pH 7.5), 11.7 mM KCl, 4.5 mM MgCl2, 0.36 mg/ml BSA, and 90 nM 3H-dTTP. Assays are run with and without CHAPS, (3-[(3-Cholamidopropyl)-dimethylammonio]-1-propane-sulfonate) at a final concentration of 2 mM. HCMV polymerase is diluted in enzyme dilution buffer containing 50% glycerol, 250 mM NaCl, 10 mM HEPES (pH 7.5), 100 μg/ml BSA, and 0.01% sodium azide. The HCMV polymerase, which is expressed in recombinant baculovirus-infected SF-9 cells and purified according to literature procedures, is added at 10% (or 10 μl ) of the final reaction volume, i.e., 100 μl. Compounds are diluted in 50% DMSO and 10 μl are added to each well. Control wells contain an equivalent concentration of DMSO. Unless noted otherwise, reactions are initiated via the addition of 6 nM biotinylated poly(dA)-oligo(dT) template/primer to reaction mixtures containing the enzyme, substrate, and compounds of interest. Plates are incubated in a 25 C or 37 C H20 bath and terminated via the addition of 40 μl/reaction of 0.5 M EDTA (pH 8) per well. Reactions are terminated within the time-frame during which substrate incorporation is linear and varied depending upon the enzyme and conditions used, i.e., 30 min. for HCMV polymerase. Ten μl of streptavidin-SPA beads (20 mg/mil in PBS/10% glycerol) are added following termination of the reaction. Plates are incubated 10 min. at 37 C, then equilibrated to room temperature, and counted on a Packard Topcount. Linear regressions are performed and IC50's are calculated using computer software.
A modified version of the above HCMV polymerase assay is performed as described above, but with the following changes: Compounds are diluted in 100% DMSO until final dilution into assay buffer. In the previous assay, compounds are diluted in 50% DMSO. 4.5 mM dithiotherotol (DTT) is added to the polymerase buffer.

HSV polymerase = HSV polymerase (Human herpesvirus 1, UniProt P04293); assay: Polymerase scintillation proximity assay (SPA), HSV; type: biochemical
VZV polymerase = VZV polymerase (Varicella-zoster virus, UniProt P09252); assay: Polymerase scintillation proximity assay (SPA), VZV; type: biochemical
Sequence of VZV polymerase (P09252 whole entry): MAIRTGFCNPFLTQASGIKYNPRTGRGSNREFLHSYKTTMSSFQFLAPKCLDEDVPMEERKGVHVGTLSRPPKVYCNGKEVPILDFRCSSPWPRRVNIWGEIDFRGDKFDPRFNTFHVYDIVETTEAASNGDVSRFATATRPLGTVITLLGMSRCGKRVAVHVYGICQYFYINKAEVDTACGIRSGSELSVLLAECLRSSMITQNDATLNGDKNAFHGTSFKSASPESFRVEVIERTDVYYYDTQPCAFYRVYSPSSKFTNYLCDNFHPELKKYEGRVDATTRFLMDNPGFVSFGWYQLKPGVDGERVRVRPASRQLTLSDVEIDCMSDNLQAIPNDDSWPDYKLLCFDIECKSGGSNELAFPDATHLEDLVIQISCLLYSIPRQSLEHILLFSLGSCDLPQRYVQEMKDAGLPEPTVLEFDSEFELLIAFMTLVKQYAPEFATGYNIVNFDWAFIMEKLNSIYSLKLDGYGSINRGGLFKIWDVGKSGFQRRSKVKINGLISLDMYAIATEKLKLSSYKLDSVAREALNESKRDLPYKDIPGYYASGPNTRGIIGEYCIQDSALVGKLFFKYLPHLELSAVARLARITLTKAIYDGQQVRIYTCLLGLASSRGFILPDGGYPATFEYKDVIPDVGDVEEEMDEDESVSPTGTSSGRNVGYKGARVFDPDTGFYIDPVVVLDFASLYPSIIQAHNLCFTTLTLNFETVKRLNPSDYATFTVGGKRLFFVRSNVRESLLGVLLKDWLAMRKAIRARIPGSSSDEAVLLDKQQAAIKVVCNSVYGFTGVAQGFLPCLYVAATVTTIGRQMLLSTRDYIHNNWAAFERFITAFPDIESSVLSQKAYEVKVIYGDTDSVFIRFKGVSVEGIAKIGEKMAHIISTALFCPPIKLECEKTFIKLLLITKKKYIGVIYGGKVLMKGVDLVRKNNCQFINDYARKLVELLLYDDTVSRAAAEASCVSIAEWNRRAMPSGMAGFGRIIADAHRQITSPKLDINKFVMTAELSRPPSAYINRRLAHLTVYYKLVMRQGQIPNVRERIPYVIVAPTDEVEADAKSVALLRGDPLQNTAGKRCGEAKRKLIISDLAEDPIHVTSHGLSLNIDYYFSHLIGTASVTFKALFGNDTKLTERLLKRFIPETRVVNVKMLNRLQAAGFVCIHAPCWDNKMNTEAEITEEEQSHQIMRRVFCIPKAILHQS

Sequence of HSV polymerase (P04293 whole entry): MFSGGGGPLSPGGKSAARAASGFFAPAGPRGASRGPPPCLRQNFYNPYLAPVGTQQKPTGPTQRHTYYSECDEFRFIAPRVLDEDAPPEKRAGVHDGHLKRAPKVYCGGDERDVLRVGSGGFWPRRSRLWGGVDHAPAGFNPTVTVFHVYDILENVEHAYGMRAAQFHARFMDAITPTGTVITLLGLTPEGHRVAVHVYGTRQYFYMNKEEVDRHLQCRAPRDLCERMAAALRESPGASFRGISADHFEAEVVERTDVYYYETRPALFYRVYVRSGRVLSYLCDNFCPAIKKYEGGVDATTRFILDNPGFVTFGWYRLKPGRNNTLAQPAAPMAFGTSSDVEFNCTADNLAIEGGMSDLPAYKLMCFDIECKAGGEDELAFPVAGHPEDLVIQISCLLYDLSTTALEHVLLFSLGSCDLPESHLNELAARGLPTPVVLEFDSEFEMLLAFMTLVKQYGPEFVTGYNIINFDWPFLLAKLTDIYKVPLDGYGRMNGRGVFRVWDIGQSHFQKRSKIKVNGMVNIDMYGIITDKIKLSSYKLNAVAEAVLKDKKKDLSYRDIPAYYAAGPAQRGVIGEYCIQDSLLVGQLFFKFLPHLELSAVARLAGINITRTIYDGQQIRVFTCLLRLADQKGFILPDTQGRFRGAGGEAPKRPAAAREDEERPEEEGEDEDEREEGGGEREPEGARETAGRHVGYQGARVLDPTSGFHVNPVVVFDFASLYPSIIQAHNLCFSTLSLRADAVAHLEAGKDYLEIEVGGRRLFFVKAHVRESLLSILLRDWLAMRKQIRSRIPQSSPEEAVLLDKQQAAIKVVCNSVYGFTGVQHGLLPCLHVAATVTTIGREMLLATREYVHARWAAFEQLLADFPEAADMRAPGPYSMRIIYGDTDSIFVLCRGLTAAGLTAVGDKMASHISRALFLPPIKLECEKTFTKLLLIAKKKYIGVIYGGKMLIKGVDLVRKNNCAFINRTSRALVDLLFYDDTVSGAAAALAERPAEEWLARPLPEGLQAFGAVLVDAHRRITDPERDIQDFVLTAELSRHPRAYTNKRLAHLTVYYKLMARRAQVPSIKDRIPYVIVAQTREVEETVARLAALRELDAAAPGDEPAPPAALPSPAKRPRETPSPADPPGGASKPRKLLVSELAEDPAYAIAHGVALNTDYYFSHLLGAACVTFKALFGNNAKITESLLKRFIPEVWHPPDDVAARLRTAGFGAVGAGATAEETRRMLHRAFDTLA
T1 sequence (P08546 whole entry): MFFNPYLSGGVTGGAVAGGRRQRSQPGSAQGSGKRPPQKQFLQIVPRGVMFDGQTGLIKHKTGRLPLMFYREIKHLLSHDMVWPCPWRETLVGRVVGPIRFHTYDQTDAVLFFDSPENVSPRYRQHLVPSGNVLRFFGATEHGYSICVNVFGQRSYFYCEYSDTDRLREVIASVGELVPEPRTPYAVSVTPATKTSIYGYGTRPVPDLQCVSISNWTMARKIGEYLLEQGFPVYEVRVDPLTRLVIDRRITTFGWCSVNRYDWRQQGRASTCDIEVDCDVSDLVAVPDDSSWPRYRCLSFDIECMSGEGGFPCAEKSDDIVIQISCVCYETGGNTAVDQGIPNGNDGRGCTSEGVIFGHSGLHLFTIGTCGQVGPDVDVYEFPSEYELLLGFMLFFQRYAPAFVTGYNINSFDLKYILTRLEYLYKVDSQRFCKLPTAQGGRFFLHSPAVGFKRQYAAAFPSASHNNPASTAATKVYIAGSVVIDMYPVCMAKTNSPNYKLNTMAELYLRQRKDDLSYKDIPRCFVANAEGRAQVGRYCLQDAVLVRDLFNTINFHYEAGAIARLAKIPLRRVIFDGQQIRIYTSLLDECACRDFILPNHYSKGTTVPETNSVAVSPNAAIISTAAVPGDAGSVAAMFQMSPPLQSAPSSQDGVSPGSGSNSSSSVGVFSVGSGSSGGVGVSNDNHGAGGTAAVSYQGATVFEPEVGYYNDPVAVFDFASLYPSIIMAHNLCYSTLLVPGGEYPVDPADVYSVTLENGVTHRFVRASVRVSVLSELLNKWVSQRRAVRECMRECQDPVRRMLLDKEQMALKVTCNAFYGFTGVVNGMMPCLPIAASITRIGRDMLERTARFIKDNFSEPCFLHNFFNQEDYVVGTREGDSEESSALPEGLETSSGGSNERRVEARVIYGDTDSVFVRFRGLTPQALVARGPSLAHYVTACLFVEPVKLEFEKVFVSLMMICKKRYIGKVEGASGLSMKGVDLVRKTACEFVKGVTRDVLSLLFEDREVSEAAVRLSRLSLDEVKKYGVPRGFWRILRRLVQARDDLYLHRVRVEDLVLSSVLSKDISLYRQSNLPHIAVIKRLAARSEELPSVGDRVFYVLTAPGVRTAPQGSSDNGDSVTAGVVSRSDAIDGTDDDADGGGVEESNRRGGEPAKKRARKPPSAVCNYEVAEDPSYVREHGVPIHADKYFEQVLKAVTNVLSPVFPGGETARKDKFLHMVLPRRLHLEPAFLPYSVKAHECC

| melting point [°C] | IC50 (HCMV polymerase) [µM] | IC50 (HSV polymerase) [µM] | IC50 (VZV polymerase) [µM] | SMILES |
| --- | --- | --- | --- | --- |
| 157 to 159 | 0.87 |  |  | CN(C)CC#Cc1cc(CC2CCOCC2)cc2c(=O)c(C(=O)NCc3ccc(Cl)cc3)cn(C)c12 [Example 3, N-(4-chlorobenzyl)-8-[3-(dimethylamino)-1-propynyl]-1-methyl-4-oxo-6-(tetrahydro-2H-pyran-4-ylmethyl)-1,4-dihydro-3-quinolinecarboxamide] |
| 158 to 161 | 0.76 | 0.45 | 0.18 | C[C@H](O)C#Cc1cc(CN2CCOCC2)cc2c(=O)c(C(=O)NCc3ccc(Cl)cc3)cn(C)c12 [Example 7, N-(4-chlorobenzyl)-8-[(3S)-3-hydroxy-1-butynyl]-1-methyl-6-(4-morpholinylmethyl)-4-oxo-1,4-dihydro-3-quinolinecarboxamide] |
|  | 0.94 |  |  | Cn1cc(C(=O)NCc2ccc(Cl)cc2)c(=O)c2cc(CN3CCOCC3)cc(C#CCN3CCC[C@H]3CO)c21 [Example 27, N-(4-chlorobenzyl)-8-{3-[(2S)-2-(hydroxymethyl)pyrrolidin-1-yl]prop-1-ynyl}-1-methyl-6-(morpholin-4-ylmethyl)-4-oxo-1,4-dihydroquinoline-3-carboxamide] |
| 144 to 146 | 1.02 |  |  | Cn1cc(C(=O)NCc2ccc(Cl)cc2)c(=O)c2cc(CN3CCOCC3)cc(C#CCN3CCC(O)C3)c21 (stereo not shown) [Example 20, N-(4-chlorobenzyl)-8-[3-(3-hydroxypyrrolidin-1-yl)prop-1-ynyl]-1-methyl-6-(morpholin-4-ylmethyl)-4-oxo-1,4-dihydroquinoline-3-carboxamide] |
|  | 0.73 |  |  | Cn1cc(C(=O)NCc2ccc(Cl)cc2)c(=O)c2cc(CN3CCOCC3)cc(C#CCN3CCC[C@@H]3CO)c21 [Example 29, N-(4-chlorobenzyl)-8-{3-[(2R)-2-(hydroxymethyl)pyrrolidin-1-yl]prop-1-ynyl}-1-methyl-6-(morpholin-4-ylmethyl)-4-oxo-1,4-dihydroquinoline-3-carboxamide] |
| 140 to 142 | 0.8 |  |  | CN(CC#Cc1cc(CN2CCOCC2)cc2c(=O)c(C(=O)NCc3ccc(Cl)cc3)cn(C)c12)CC(O)CO (stereo not shown) [Example 21, N-(4-chlorobenzyl)-8-{3-[(2,3-dihydroxypropyl)(methyl)amino]prop-1-ynyl}-1-methyl-6-(morpholin-4-ylmethyl)-4-oxo-1,4-dihydroquinoline-3-carboxamide] |
| 168 to 170 | 0.8 | 0.82 | 0.36 | Cn1cc(C(=O)NCc2ccc(Cl)cc2)c(=O)c2cc(CN3CCOCC3)cc(C#CCCO)c21 [Example 6, N-(4-chlorobenzyl)-8-(4-hydroxy-1-butynyl)-1-methyl-6-(4-morpholinylmethyl)-4-oxo-1,4-dihydro-3-quinolinecarboxamide] |
|  | 1.29 |  |  | Cn1cc(C(=O)NCc2ccc(Cl)cc2)c(=O)c2cc(CN3CCOCC3)cc(C#CCN3CCN(CCO)CC3)c21 [Example 26, N-(4-chlorobenzyl)-8-{3-[4-(2-hydroxyethyl)piperazin-1-yl]prop-1-ynyl}-1-methyl-6-(morpholin-4-ylmethyl)-4-oxo-1,4-dihydroquinoline-3-carboxamide] |
|  | 0.82 |  |  | Cn1cc(C(=O)NCc2ccc(Cl)cc2)c(=O)c2cc(CN3CCOCC3)cc(C#CCN3CCCC(O)C3)c21 (stereo not shown) [Example 28, N-(4-chlorobenzyl)-8-[3-(3-hydroxypiperidin-1-yl)prop-1-ynyl]-1-methyl-6-(morpholin-4-ylmethyl)-4-oxo-1,4-dihydroquinoline-3-carboxamide] |
| 190 to 193 | 0.56 |  |  | Cn1cc(C(=O)NCc2ccc(Cl)cc2)c(=O)c2cc(CN3CCOCC3)cc(C#CCC(CO)CO)c21 [Example 24, N-(4-chlorobenzyl)-8-[5-hydroxy-4-(hydroxymethyl)pent-1-ynyl]-1-methyl-6-(morpholin-4-ylmethyl)-4-oxo-1,4-dihydroquinoline-3-carboxamide] |
| 189 to 191 | 0.77 |  |  | Cn1cc(C(=O)NCc2ccc(Cl)cc2)c(=O)c2cc(CN3CCOCC3)cc(C#CCF)c21 [Example 12, N-(4-chlorobenzyl)-8-(3-fluoroprop-1-ynyl)-1-methyl-6-(morpholin-4-ylmethyl)-4-oxo-1,4-dihydroquinoline-3-carboxamide] |
|  | 0.71 |  |  | Cn1cc(C(=O)NCc2ccc(Cl)cc2)c(=O)c2cc(CN3CCOCC3)cc(C#CCN3CCCCC3CCO)c21 (stereo not shown) [Example 30, N-(4-chlorobenzyl)-8-{3-[2-(2-hydroxyethyl)piperidin-1-yl]prop-1-ynyl}-1-methyl-6-(morpholin-4-ylmethyl)-4-oxo-1,4-dihydroquinoline-3-carboxamide] |
| 148 to 149 | 0.82 |  |  | CN(CC#Cc1cc(CN2CCOCC2)cc2c(=O)c(C(=O)NCc3ccc(Cl)cc3)cn(C)c12)CCO [Example 22, N-(4-chlorobenzyl)-8-{3-[(2-hydroxyethyl)(methyl)amino]prop-1-ynyl}-1-methyl-6-(morpholin-4-ylmethyl)-4-oxo-1,4-dihydroquinoline-3-carboxamide] |
| 186 to 188 | 0.32 |  |  | Cn1cc(C(=O)NCc2ccc(Cl)cc2)c(=O)c2cc(CC3CCOCC3)cc(C#CCCO)c21 [Example 2, N-(4-chlorobenzyl)-8-(4-hydroxy-1-butynyl)-1-methyl-4-oxo-6-(tetrahydro-2H-pyran-4-ylmethyl)-1,4-dihydro-3-quinolinecarboxamide] |
| 178 to 180 | 0.61 |  |  | CC(O)CC#Cc1cc(CN2CCOCC2)cc2c(=O)c(C(=O)NCc3ccc(Cl)cc3)cn(C)c12 (stereo not shown) [Example 18, N-(4-chlorobenzyl)-8-(4-hydroxypent-1-ynyl)-1-methyl-6-(morpholin-4-ylmethyl)-4-oxo-1,4-dihydroquinoline-3-carboxamide] |
|  | 0.74 |  |  | Cn1cc(C(=O)NCc2ccc(Cl)cc2)c(=O)c2cc(CN3CCOCC3)cc(C#CCN3CCCC(CO)C3)c21 (stereo not shown) [Example 25, N-(4-chlorobenzyl)-8-{3-[3-(hydroxymethyl)piperidin-1-yl]prop-1-ynyl}-1-methyl-6-(morpholin-4-ylmethyl)-4-oxo-1,4-dihydroquinoline-3-carboxamide] |
| 171 to 173 | 0.55 |  |  | Cn1cc(C(=O)NCc2ccc(Cl)cc2)c(=O)c2cc(CN3CCOCC3)cc(C#CCC[C@@H]3COC(=O)N3)c21 [Example 9, N-(4-chlorobenzyl)-1-methyl-6-(4-morpholinylmethyl)-4-oxo-8-{4-[(4R)-2-oxo-1,3-oxazolidin-4-yl]-1-butynyl}-1,4-dihydro-3-quinolinecarboxamide] |
| 180 to 183 | 1.01 |  |  | Cn1cc(C(=O)NCc2ccc(Cl)cc2)c(=O)c2cc(CN3CCOCC3)cc(C#CCN3CCC(O)CC3)c21 [Example 19, N-(4-chlorobenzyl)-8-[3-(4-hydroxypiperidin-1-yl)prop-1-ynyl]-1-methyl-6-(morpholin-4-ylmethyl)-4-oxo-1,4-dihydroquinoline-3-carboxamide] |
| 154 to 157 | 1.6 |  |  | CN(C)CC#Cc1cc(CN2CCOCC2)cc2c(=O)c(C(=O)NCc3ccc(Cl)cc3)cn(C)c12 [Example 5, N-(4-chlorobenzyl)-8-[3-(dimethylamino)-1-propynyl]-1-methyl-6-(4-morpholinylmethyl)-4-oxo-1,4-dihydro-3-quinolinecarboxamide] |
|  | 0.49 | 0.55 | 0.33 | CCCCN(CC#Cc1cc(CN2CCOCC2)cc2c(=O)c(C(=O)NCc3ccc(Cl)cc3)cn(C)c12)CCO [Example 31, 8-{3-[butyl(2-hydroxyethyl)amino]prop-1-ynyl}-N-(4-chlorobenzyl)-1-methyl-6-(morpholin-4-ylmethyl)-4-oxo-1,4-dihydroquinoline-3-carboxamide] |
|  | 0.52 |  |  | Cc1cncn1CC#Cc1cc(CN2CCOCC2)cc2c(=O)c(C(=O)NCc3ccc(Cl)cc3)cn(C)c12 [Example 14, N-(4-chlorobenzyl)-1-methyl-8-[3-(5-methyl-1H-imidazol-1-yl)prop-1-ynyl]-6-(morpholin-4-ylmethyl)-4-oxo-1,4-dihydroquinoline-3-carboxamide] |
